Values of other authors as cited in patent publication US11980627B2, “Triple pharmaceutical composition for proteinaceous infection” (priority 2019, dated 2024).

Key:
AD patients = conditions: twelve months' treatment, alone or in combination
soluble amyloid protein = conditions: intravenous
patients with AD = conditions: human, in vivo
AD = conditions: in vivo

Chain of soluble amyloid protein (P05067 672-711 limits assumed): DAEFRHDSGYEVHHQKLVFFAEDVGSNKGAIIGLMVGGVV

In the case of `CO[C@H]1/C=C/O[C@@]2(C)Oc3c(C)c(O)c4c(O)c(c(/C=N/N5CCN(C)CC5)c(O)c4c3C2=O)NC(=O)/C(C)=C\C=C\[C@H](C)[C@H](O)[C@@H](C)[C@@H](O)[C@@H](C)[C@H](OC(C)=O)[C@@H]1C` [rifampin], the “effects on cognition or function in AD” value (AD patients) is listed as “no beneficial effects”.
For “Solanezumab: intravenous amyloid immunotherapy; humanized monoclonal antibody to soluble amyloid protein”, the “outcome of amyloid immunotherapy in AD” value (soluble amyloid protein) is listed as “failure”.
For `COc1ccc2cc([C@H](C)C(=O)O)ccc2c1` [Naproxen], the “cognitive function in patients with AD” value (patients with AD) is given as “did not improve”.
In the case of `CC(=O)Oc1ccccc1C(=O)O` [aspirin], the “effects on AD” value (AD) is given as “not found to have beneficial effects”.
In the case of `CC(=O)Nc1ccc(O)cc1` [Acetaminophen], the “effects on AD” value (AD) is listed as “not found to have beneficial effects”.
